# Experiment: Solubility test in propylene glycol monomethyl ether (PGME)
# Settings: 5% by mass in PGME, 5° C., 30 days
# Description: A compound was dissolved at 5% by mass in propylene glycol monomethyl ether (PGME) at 23° C. Then, the solution was left to stand still at 5° C. for 30 days.
# Evaluation A: No precipitate was visually confirmed.
# Evaluation C: Precipitates were visually confirmed.
row,Compound,solubility (summary in words of Table 7)
1,CC(c1ccc(-c2ccccc2)cc1)(c1c(O)ccc2cc(O)ccc12)c1c(O)ccc2cc(O)ccc12 [BiN-2],good
2,CC(c1ccc(C2CCCCC2)cc1)(c1c(O)ccc2cc(O)ccc12)c1c(O)ccc2cc(O)ccc12 [BiN-4],good
3,CC(c1ccc(O)cc1)(c1ccc(O)cc1)c1ccc(C2CCCCC2)cc1 [P-2],good
4,CC1(c2ccc(-c3ccccc3)cc2)c2c(ccc3cc(O)ccc23)Oc2ccc3cc(O)ccc3c21 [XBiN-1],good
5,CC1(c2ccc(-c3ccccc3)cc2)c2ccc(O)cc2Oc2cc(O)ccc21 [P-3],good
6,CC1(c2ccc(C3CCCCC3)cc2)c2ccc(O)cc2Oc2cc(O)ccc21 [P-4],good
7,CC(c1ccc(-c2ccccc2)cc1)(c1cc(-c2ccc(O)cc2)ccc1O)c1cc(-c2ccc(O)cc2)ccc1O [BiP-2],good
8,CC1(c2ccc(-c3ccccc3)cc2)c2c(ccc3ccc(O)cc23)Oc2ccc3ccc(O)cc3c21 [XBiN-2],good
9,CC1(c2ccc(C3CCCCC3)cc2)c2c(ccc3cc(O)ccc23)Oc2ccc3cc(O)ccc3c21 [XBiN-3],good

# Second part, the compound after the results:
row,solubility (summary in words of Table 7),Compound
1,good,CC(c1ccc(-c2ccccc2)cc1)(c1c(O)ccc2ccc(O)cc12)c1c(O)ccc2ccc(O)cc12 [BiN-3]
2,good,CC(c1ccc(-c2ccccc2)cc1)(c1ccc(O)c(-c2ccccc2)c1)c1ccc(O)c(-c2ccccc2)c1 [BiP-1]
3,good,CC(c1ccc(-c2ccccc2)cc1)(c1c(O)ccc2ccccc12)c1c(O)ccc2ccccc12 [BiN-1]
4,good,CC(c1ccc(-c2ccccc2)cc1)(c1ccc(O)c(-c2ccccc2O)c1)c1ccc(O)c(-c2ccccc2O)c1 [BiP-3]
5,good,CC(c1ccc(C2CCCCC2)cc1)(c1ccc(O)c(-c2ccccc2O)c1)c1ccc(O)c(-c2ccccc2O)c1 [BiP-4]
